Key:
CD34+CD45RA− cells = test: Dose-response assay: 50% increase in CD34+CD45RA− cell count vs vehicle (EC50); format: cell-based, human; conditions: concentration giving 50% increase in CD34+CD45RA− cell count vs vehicle (DMSO), dose-response 1 nM to 5000 nM; for EC50: Homo sapiens, read-out: Biological data (EC50)*
Protocol: The following biological assays were used to assess the effect of the compounds of the invention on hematopoietic stem cell expansion. Culture medium: The culture medium used consisted of serum-free medium supplemented with the following recombinant cytokines: interleukin-6, thrombopoietin, Flt-3 ligand, and stem cell factor, each at a final concentration of 100 ng/ml, in the presence of vehicle (DMSO), positive control (SR1), or compound of the invention or a combination of compounds.

[1] = test system: Mobilized peripheral blood CD34(+) cells; test: Growth factor (Flt3, SCF, TPO) requirement / mitogen test (FIG. 3); format: cell-based, human
Protocol: FIG. 3: Flt3, SCF, and TPO are required for compound 1 mediated stem cell expansion. Mobilized peripheral blood CD34(+) cells were cultured for 7 days in the presence or absence of the growth factors (Flt3+SCF+TPO).
This indicate that akin to SR1, Compound 1's effect on maintenance of primitive HSC phenotype ex vivo is not due to a mitogenic effect on this population but rather on the prevention of cell differentiation.

[2] = test system: CD34+ mobilized peripheral blood cells; test: FACS analysis of differentiation of CD34+ mobilized peripheral blood cells (FIG. 4A); format: cell-based, human; conditions: 7 day expansion, optimal levels, vs DMSO control
Source text: FIG. 4A illustrates the impact of Compound 1 on mobilized peripheral blood cell differentiation. Following a 7 day expansion, a relatively pure (>85% CD34^+) population of mobilized peripheral blood was exposed to control the (DMSO) or Compound 1 or SR1 or Compound 1+SR1.

[3] = test system: CD34+ mobilized peripheral blood (mPB) cells; test: Ex vivo expansion of mobilized peripheral blood-derived CD34+ and CD34+CD45RA− cells (FIG. 5A); format: cell-based, human; conditions: 12-days culture
Source text: FIG. 5: A) Compound 1 expands mobilized peripheral blood-derived CD34+ and CD34+CD45RA− cell populations ex vivo. […] This observation was enhanced with the co-treatment with SR1.
[…]. The level of expansion is the same whether cultures are initiated with Compound 1, SR1, Compound 1+SR1, or control DMSO. […] […].

[4] = test system: CD34+CD45RA− cord blood cells; test: Ex vivo expansion of cord blood-derived CD34+ and CD34+CD45RA− cells (FIG. 5B, 5C); format: cell-based, human; conditions: cord blood
[5] = test system: CD34+ mPB cells transplanted in NSG mice; test: Engraftment of cultured CD34+ mPB cells in NSG mice; conditions: cells cultured ten days; outcome of 50,000 and 500,000 cells; 13 week post-transplantation
[6] = test system: CD34+ CB cells transplanted in NSG mice; test: Engraftment of cultured CD34+ cord blood cells in NSG mice (FIG. 7); conditions: outcome of 5,000 CD34+ CB cells, 7 days culture; 8-weeks post transplantation (FIG. 7A)
Source text: These experiments were done in short term cultures i.e. 7 days.

COC(=O)c1ccc2c(c1)[nH]c1nc(Cc3cccc(C(O)C(F)(F)F)c3)nc(NCCCN3CCCCC3)c12 (stereo not shown) [Compound 34, methyl 4-((3-(piperidin-1-yl)propyl)amino)-2-(3-(2,2,2-trifluoro-1-hydroxyethyl)benzyl)-9H-pyrimido[4,5-b]indole-7-carboxylate]
EC50 (CD34+CD45RA− cells): < 100 nM

COC(=O)c1ccc2c(c1)[nH]c1nc(Cc3ccccc3)nc(NCCCN(C)CCCNc3nc(Cc4ccccc4)nc4[nH]c5cc(C(=O)OC)ccc5c34)c12 [Compound 51, dimethyl 4,4′-(((methylazanediyl)bis(propane-3,1-diyl))bis(azanediyl))bis(2-benzyl-9H-pyrimido[4,5-b]indole-7-carboxylate)]
EC50 (CD34+CD45RA− cells): < 100 nM

COC(=O)c1ccc2c(c1)[nH]c1nc(Cc3cccc(C4(C(F)(F)F)N=N4)c3)nc(NCCCN(C)CCCNC(=O)CCCC[C@@H]3SC[C@@H]4NC(=O)N[C@@H]43)c12 [Compound 53, methyl 4-((3-(methyl(3-(5-((3aS,4S,6aR)-2-oxohexahydro-1H-thieno[3,4-d]imidazol-4-yl)pentanamido)propyl)amino)propyl)amino)-2-(3-(3-(trifluoromethyl)-3H-diazirin-3-yl)benzyl)-9H-pyrimido[4,5-b]indole-7-carboxylate]
Biological data (EC50)* (CD34+CD45RA− cells): F (F=compound showed >1.3 fold expansion)

CC(C)n1cnc2c(NCCc3ccc(O)cc3)nc(-c3csc4ccccc34)nc21 [SR1, StemRegenin1, reference compound]
induction of cell proliferation in the absence of growth factors (Flt3, TPO, SCF) [1]: not able to induce cell proliferation | loss of CD34 cell surface expression [2]: partly abrogated | total cell count increase above the input [3]: about 20 fold | expansion of CD34+CD45RA− cells ([4]; 12-days): less than 20 fold | total cell expansion vs DMSO (control) ([4]; twelve days): the same | human hematopoietic engraftment (human CD45+ cells in BM) [5]: consistently better than DMSO | human CD45+ engraftment / reconstitution activity [6]: human CD45+ engraftment

— patent US9409906B2, “Pyrimido[4,5-B]indole derivatives and use thereof in the expansion of hematopoietic stem cells” (UNIVERSITÉ DE MONTRÉAL, priority 2012, dated 2016)
